Entries after “also recorded” stand apart in the source; their conditions may differ. Bridge positions count the residues as written; N and C are the ends. Square brackets hold non-standard residues; d marks the D form. Peptide text beside a SMILES is read from it. R8 = C=CCCCCCC[C@@](C)(N)C(=O)O; S5 = C=CCCC[C@](C)(N)C(=O)O; Nle = CCCC[C@H](N)C(=O)O
What was measured:
UBA1 = biological target: T1, UBA1 (Homo sapiens, UniProt P22314); experiment: UBA1~Ub thioester adduct formation (thioester transfer assay gel resolving UBA1 from UBA1~Ub); assay type: biochemical; conditions: all concentrations of peptide
T1 sequence (P22314 1-1058): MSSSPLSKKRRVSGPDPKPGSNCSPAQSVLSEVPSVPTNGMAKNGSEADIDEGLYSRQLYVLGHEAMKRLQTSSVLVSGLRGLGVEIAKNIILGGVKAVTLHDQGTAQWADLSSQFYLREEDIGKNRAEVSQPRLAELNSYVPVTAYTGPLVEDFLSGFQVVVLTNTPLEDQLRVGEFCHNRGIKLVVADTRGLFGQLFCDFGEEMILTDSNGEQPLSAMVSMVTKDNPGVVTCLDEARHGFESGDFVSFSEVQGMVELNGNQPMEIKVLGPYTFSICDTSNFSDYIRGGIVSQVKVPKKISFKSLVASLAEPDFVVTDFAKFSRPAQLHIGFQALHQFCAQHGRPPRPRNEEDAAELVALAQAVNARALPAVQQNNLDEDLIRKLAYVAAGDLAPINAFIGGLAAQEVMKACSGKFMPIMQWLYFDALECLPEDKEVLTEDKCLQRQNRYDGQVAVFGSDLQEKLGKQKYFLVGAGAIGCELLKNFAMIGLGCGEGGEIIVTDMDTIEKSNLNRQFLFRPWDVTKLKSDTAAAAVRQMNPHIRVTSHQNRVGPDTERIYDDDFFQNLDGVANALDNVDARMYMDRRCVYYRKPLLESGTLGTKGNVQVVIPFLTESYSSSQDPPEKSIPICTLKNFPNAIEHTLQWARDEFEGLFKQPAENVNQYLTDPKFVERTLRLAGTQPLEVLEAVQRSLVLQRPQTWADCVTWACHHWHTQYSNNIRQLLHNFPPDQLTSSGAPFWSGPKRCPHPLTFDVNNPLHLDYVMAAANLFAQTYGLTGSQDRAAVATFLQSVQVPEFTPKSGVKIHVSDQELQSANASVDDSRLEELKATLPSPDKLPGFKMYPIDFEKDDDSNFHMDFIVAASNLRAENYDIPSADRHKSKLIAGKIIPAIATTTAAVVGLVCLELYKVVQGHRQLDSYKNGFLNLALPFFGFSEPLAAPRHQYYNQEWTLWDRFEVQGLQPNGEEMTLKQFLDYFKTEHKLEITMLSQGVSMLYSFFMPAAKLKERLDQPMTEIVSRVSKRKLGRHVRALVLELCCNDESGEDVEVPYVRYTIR

[1] = biological target: T2, Human E1 activating enzyme UBA1 (Homo sapiens, UniProt P22314); experiment: In vitro enzyme inhibition assay: E1-mediated ubiquitin thioester transfer to E2 (band shift, silver stain); assay type: biochemical; conditions: for effect of nonionic detergent on inhibitory activity against UBA1: 0.01% Triton X-100 in assay buffer
T2 sequence (P22314 1-1058): T1 sequence (P22314 1-1058)
Method: In vitro Enzyme Inhibition Assays: To assess an E2 hA peptide's inhibition of an E1 enzyme, an in vitro enzyme inhibition assay can be used, for example. The in vitro enzyme inhibition assay measures an E2 hA peptide's ability to inhibit conjugation of ubiquitin to E2 by E1. Briefly, recombinant E1 (e.g., UBA1), recombinant E2 (e.g., UBE2A), ubiquitin, and Mg-ATP are combined in the presence of an E2 hA peptide or vehicle control (e.g., 1% DMSO) for a period of time (e.g., 30 minutes) at room temperature in a buffer containing, e.g., 50 mM NaCl, 50 mM HEPES pH 7.5. Control reaction includes no E1. Reactions are quenched by addition of SDS-containing loading dye and samples are resolved on a gel (e.g., a 4-12% Bis-Tris protein gel) under nonreducing conditions. Proteins on the gel are visualized via, e.g., silver stain. Conjugation of ubiquitin to E2 by E1 is monitored by conversion of free E2 (˜17 kDa) to E2˜ubiquitin conjugate (˜26 kDa).
Control reaction included no E1 enzyme. Reactions were quenched by addition of SDS-containing loading dye and samples were resolved on a 4-12% Bis-Tris protein gel under nonreducing conditions. Proteins were visualized via silver stain. Conjugation of ubiquitin to E2 by E1 was monitored by conversion of free E2 (17 kDa) to E2˜ubiquitin conjugate (26 kDa).
The ability of the peptides to inhibit E1-mediated thioester transfer to E2 was evaluated. Human E1 activating enzyme UBA1 (10 nM), UbcH5b E2 enzyme (150 nM), ubiquitin (1 μM), and Mg-ATP (20 μM) were combined in the presence of stapled peptide at a range of concentrations or vehicle control (1% DMSO) for 45 minutes at room temperature in buffer containing 50 mM NaCl, 50 mM HEPES, 1 mM TCEP pH 7.5. Reactions were quenched by addition of SDS-containing loading dye and samples were resolved on a 4-12% Bis-Tris protein gel under nonreducing conditions. Proteins were visualized via silver stain. Conjugation of ubiquitin to E2 by E1 was monitored by conversion of free E2 (17 kDa) to E2˜ubiquitin conjugate (26 kDa). Inhibition percentage was calculated from densitometry of silver stain images.
Streptavidin-biotin pull-down assays: For recombinant protein pull-downs, 10 pmol recombinant human UBA1 was incubated with 5 nmol C-terminally biotinylated SAH-UBE2A or DMSO vehicle control in a total volume of 1 mL binding buffer (50 mM NaCl, 20 mM HEPES, pH 7.4, 5 mM DTT) for 1.5 hours at 4° C. 30 μL of pre-equilibrated streptavidin agarose beads were then added and incubated for an additional 1.5 hours at 4° C. The beads were pelleted by centrifugation and washed three times with NP-40 buffer (20 mM HEPES, pH 7.4, 50 mM NaCl, 5 mM DTT, 0.5% [v/v] NP-40) before eluting the protein sample from the beads by heating at 70° C. for 10 min in 3×SDS loading buffer. Samples were subjected to electrophoresis and silver staining (Pierce 24612). For pull-down from cellular lysates, 0.75 mg HeLa cell lysate was incubated with 5 nmol C-terminally biotinylated SAH-UBE2A or DMSO vehicle control in a total volume of 1 mL binding buffer (50 mM NaCl, 20 mM HEPES, pH 7.4, 5 mM DTT) containing protease-phosphatase inhibitor cocktail for 2 hours at 4° C. 30 μL of pre-equilibrated streptavidin agarose beads (ThermoFisher 20357) were then added and incubated for an additional 1.5 hours at 4° C. The beads were pelleted by centrifugation and washed three times with NP-40 buffer (20 mM HEPES, pH 7.4, 50 mM NaCl, 5 mM DTT, 0.5% [v/v] NP-40) before eluting the protein sample from the beads by heating at 70° C. for 10 min in 3×SDS loading buffer. Proteins were separated by SDS-PAGE gel electrophoresis and detected by western blot against UBE1 (Abcam ab34711). In vitro Enzyme Inhibition Assays: Recombinant human E1 activating enzyme UBA1 (10 nM), E2 enzyme (150 nM), ubiquitin (1 μM), and Mg-ATP (20 μM) are combined in the presence of peptide or vehicle control (1% DMSO) for 45 minutes at room temperature in buffer containing 50 mM NaCl, 50 mM HEPES pH 7.5. Control reaction includes no E1 enzyme. […]

CCCC[C@H](NC(C)=O)C(=O)N[C@@H](CO)C(=O)N[C@H](C(=O)N1CCC[C@H]1C(=O)N[C@]1(C)CCCCCCC=CCCC[C@@](C)(C(=O)N[C@@H](Cc2ccccc2)C(=O)N[C@@H](CCCCN)C(=O)N[C@@H](CCCNC(=N)N)C(=O)N[C@@H](CC(C)C)C(=O)N[C@@H](CCC(N)=O)C(N)=O)NC(=O)[C@H](CCCNC(=N)N)NC(=O)[C@H](CCCC)NC(=O)[C@H](CC(C)C)NC(=O)[C@H](CCCNC(=N)N)NC(=O)[C@H](CCCNC(=N)N)NC(=O)[C@H](CCCNC(=N)N)NC1=O)[C@@H](C)O [SAH-UBE2A-11, BSTPX1RRRLBRX2FKRLQ] (Ac-[Nle]STP[R8]RRRL[Nle]R[S5]FKRLQ-NH2; staple 5-12)
ability of UBA1 to form covalent UBA1~Ub thioester adduct (UBA1): no effect on the ability of UBA1 to covalently charge itself with ubiquitin
ability of UBA1 to form covalent UBA1~Ub thioester adduct (UBA1; listed as SAH-UBE2A): no effect on the ability of UBA1 to form a covalent UBA1˜Ub thioester adduct
effect of nonionic detergent on inhibitory activity against UBA1 [1]: not affected at all by the presence of non-ionic detergent
effect of nonionic detergent on inhibitory activity against UBA1 ([1]; listed as SAH-UBE2A): no effect on the inhibitory activity of SAH-UBE2A
inhibition of E1-mediated thioester transfer to a variety of human E2 enzymes ([1]; panel of human E2 enzymes (UBE2A, UBE2B, UBE2C, UBE2D1-4 etc.)): inhibited E1-mediated thioester transfer to all human E2 enzymes tested; also recorded: inhibits E1 thioester transfer activity
inhibition of E1-mediated thioester transfer to E2, dose response ([1]; range of peptide concentrations, UbcH5b E2 enzyme, 45 minutes): inhibited E1-mediated thioester transfer to E2 in a dose-dependent manner; also recorded: most potent activity; also recorded: dose-dependently inhibit E1-mediated thioester transfer to E2

Reference: US12358960B2, “Selective targeting of ubiquitin- and ubiquitin-like E1-activating enzymes by structurally-stabilized peptides” (Dana-Farber Cancer Institute, Inc., priority 2019, dated 2025)
